Assay results reported in ChEMBL document CHEMBL1201862, “PubChem BioAssay data set” (2004).
Active and inactive are the calls of the source.

Key:
[1] = target: Estrogen receptor beta (Homo sapiens, UniProt Q92731);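 note: recombinant ER-beta bound to coactivator SRC1 peptide in presence of estradiol agonist; inhibitors block coactivator peptide binding and lower the FRET signal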
[2] = target: T1, Fatty acid synthase (Homo sapiens, UniProt P49327); experiment: FAS thioesterase domain inhibitors, dose response, biochemical, endpoint fluorescence intensity, uHTS hits (AID 624327); format: functional;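 note: fluorescence from hydrolysis of an O-methyl fluorescein acyl ester substrate by the enzyme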
T1 sequence (P49327 whole entry, the tested form may be a part): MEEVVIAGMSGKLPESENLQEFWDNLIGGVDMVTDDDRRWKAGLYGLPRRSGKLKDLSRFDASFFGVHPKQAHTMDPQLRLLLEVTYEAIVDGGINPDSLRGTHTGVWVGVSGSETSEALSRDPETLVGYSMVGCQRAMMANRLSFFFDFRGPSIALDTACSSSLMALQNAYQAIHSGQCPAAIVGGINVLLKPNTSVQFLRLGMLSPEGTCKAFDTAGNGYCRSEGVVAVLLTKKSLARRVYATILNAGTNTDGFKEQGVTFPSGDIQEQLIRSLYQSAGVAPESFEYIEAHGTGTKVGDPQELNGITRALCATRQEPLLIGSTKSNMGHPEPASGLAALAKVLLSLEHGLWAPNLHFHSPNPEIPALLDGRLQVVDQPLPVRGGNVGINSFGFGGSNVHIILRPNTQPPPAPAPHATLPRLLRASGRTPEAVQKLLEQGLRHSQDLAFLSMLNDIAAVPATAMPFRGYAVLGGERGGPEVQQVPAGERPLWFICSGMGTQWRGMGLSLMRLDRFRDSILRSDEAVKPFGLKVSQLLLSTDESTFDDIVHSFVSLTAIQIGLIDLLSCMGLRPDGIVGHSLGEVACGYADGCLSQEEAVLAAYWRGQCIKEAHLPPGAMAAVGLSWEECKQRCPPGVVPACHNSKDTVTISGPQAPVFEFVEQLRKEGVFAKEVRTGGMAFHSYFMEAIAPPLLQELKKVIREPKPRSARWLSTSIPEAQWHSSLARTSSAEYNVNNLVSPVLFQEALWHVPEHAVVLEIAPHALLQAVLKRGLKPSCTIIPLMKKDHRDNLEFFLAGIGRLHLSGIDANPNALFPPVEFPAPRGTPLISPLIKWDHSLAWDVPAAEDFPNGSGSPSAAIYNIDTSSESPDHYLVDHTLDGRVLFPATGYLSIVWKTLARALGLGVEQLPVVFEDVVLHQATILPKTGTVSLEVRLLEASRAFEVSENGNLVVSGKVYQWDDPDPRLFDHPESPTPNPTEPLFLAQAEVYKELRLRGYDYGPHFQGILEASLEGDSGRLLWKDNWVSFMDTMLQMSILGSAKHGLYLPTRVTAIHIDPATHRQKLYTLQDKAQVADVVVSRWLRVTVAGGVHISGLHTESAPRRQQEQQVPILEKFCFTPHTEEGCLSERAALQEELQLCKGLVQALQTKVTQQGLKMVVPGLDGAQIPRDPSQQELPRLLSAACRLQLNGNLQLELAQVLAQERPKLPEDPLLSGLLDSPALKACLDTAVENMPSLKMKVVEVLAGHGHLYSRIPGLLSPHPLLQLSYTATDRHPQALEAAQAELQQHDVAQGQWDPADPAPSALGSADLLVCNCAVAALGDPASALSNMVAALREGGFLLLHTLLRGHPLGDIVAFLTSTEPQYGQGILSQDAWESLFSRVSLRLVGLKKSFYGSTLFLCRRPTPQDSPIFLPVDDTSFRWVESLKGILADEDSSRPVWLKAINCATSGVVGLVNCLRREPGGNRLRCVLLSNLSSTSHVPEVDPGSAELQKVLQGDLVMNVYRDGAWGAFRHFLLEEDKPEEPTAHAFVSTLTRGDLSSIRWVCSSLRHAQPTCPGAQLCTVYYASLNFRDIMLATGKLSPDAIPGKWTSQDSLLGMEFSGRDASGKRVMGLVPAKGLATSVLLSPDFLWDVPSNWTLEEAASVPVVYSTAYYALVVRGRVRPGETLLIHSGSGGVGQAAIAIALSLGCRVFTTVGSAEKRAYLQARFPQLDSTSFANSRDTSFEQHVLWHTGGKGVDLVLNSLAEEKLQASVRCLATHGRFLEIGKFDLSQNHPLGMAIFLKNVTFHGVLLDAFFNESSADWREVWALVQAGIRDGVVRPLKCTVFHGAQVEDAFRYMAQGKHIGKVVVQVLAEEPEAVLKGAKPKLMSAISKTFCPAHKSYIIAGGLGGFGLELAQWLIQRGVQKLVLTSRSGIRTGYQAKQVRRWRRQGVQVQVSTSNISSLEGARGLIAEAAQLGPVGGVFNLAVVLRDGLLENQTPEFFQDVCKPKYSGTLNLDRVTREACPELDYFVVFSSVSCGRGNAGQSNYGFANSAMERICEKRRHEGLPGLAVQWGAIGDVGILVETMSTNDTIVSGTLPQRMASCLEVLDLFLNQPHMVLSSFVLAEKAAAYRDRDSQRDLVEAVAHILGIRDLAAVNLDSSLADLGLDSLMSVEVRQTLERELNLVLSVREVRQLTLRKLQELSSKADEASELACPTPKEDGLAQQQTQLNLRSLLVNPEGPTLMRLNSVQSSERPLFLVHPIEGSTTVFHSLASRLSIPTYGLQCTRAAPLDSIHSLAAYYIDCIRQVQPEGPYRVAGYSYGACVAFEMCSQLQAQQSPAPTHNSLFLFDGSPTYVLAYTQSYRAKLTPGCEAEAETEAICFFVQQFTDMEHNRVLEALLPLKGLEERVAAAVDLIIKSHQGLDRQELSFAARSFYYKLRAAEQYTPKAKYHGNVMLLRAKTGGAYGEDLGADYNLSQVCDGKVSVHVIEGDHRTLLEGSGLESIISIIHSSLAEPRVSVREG

[3] = target: T1, Fatty acid synthase; experiment: FAS thioesterase domain inhibitors, dose response, biochemical, kinetic fluorescence intensity (AID 624326); format: functional;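 note: rate of fluorescence rise from hydrolysis of a fluorogenic O-methyl fluorescein ester substrate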
[4] = target: T2, Calpain-2 catalytic subunit (Sus scrofa, UniProt P43367); experiment: pig calpain II inhibitor potency, dose response, biochemical, fluorogenic peptide substrate (AID 1420); format: functional
T2 sequence (P43367 whole entry): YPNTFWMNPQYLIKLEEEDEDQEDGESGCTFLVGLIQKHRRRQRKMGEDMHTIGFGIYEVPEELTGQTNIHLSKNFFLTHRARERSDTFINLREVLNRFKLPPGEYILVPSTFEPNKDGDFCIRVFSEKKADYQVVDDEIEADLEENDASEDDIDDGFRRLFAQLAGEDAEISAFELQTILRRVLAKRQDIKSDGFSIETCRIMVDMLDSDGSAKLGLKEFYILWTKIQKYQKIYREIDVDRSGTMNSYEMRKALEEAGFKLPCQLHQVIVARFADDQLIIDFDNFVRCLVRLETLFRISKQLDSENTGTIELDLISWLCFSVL

[5] = target: Heat shock protein HSP 90-alpha (Homo sapiens, UniProt P07900); format: functional, organism-based
[6] = inhibitors of HIV Env-driven cell fusion, dose response, cherry-pick (AID 652057); format: functional, cell-based
[7] = inhibitors of clade B AD8 Env fusion, dose response, cell-based, cherry-pick (AID 652062); format: functional;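 note: luciferase signal from cell-cell fusion driven by HIV-1 clade B AD8 Env; potency is for inhibitors of fusion seen as a drop in luminescence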
[8] = off-target signal loss in HeLa-CEM21 co-culture – HeLa F-luc CTL cells, cherry-picked, counter-screen for HIV-1 Env fusion inhibitor project, dose response (AID 652040); format: functional, cell-based;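 note: potency for signal decrease marking cytotoxic or nonspecific inhibition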

Sequence of Estrogen receptor beta (Q92731 whole entry, the tested form may be a part): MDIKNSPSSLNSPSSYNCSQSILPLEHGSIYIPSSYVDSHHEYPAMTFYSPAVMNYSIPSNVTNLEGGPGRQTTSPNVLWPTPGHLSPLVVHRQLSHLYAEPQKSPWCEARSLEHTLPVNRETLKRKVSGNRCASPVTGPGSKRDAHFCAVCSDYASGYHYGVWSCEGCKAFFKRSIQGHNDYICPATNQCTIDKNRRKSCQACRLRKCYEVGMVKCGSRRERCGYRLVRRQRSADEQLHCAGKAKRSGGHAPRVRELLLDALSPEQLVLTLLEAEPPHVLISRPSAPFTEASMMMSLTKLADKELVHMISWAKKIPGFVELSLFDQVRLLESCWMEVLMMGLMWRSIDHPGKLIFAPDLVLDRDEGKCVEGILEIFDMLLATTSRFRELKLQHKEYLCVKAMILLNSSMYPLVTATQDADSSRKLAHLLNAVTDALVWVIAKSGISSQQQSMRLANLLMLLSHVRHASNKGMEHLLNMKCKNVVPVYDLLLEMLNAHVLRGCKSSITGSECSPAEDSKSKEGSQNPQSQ

COc1cccc(-n2nc(-c3ccnn3-c3ccc(F)cc3)c(=O)n(C)c2=O)c1
IC50 [1]: > 50 µM (not active)

C[C@@]12C(=O)N(c3cccc(Br)c3)C(=O)N1[C@H](c1ccc(Cl)cc1)[C@@H]1C(=O)N(C3CCCCC3)C(=O)[C@@H]12
IC50 [2]: 7.4 µM (active) | IC50 [3]: 5.22 µM (active)

COc1cc(/C=N/n2cnnc2)ccc1OS(=O)(=O)c1ccccc1[N+](=O)[O-]
IC50 [4]: 15.5 µM (not active)

COc1ccc(C(=O)N2CCN(CCc3ccccc3)CC2)cc1[N+](=O)[O-]
IC50 [2]: 0.786 µM (active) | IC50 [3]: 0.525 µM (active)

Oc1ccc(O)c2c1C1(Cl)C(Cl)=C(Cl)C2(Cl)C1(Cl)Cl
IC50 [2]: 15.7 µM (active) | IC50 [3]: 14.1 µM (active) | AC50 [5]: 8.21 µM (active)

O=C(COC(=O)CSc1ccc2ccccc2c1)Nc1ccccc1OC(F)F
IC50 [4]: 1.8 µM (not active)

Cc1ccc(C)c(NC(=O)Cc2nc(CCl)cs2)c1
IC50 [4]: 1.04 µM (not active)

Cc1c([C@H]2[C@@H](CC#N)C2(C)C)c2ccccc2n1C
IC50 [1]: > 50 µM (not active)

O=C(CN=C(S)N(Cc1ccccc1)Cc1ccccc1F)NCc1ccccc1
IC50 [4]: > 50 µM (not active)

CSc1ccc(CN2C(=O)C(F)(F)Oc3c(C(C)=O)cccc32)cc1
IC50 [2]: 9.19 µM (active) | IC50 [3]: 9.77 µM (active)

Cc1cc(-c2ccc(N3C(=O)CCC3=O)c(C)c2)ccc1N1C(=O)CCC1=O
IC50 [1]: > 50 µM (not active)

CCN(CC)S(=O)(=O)c1cccc(S(=O)(=O)c2cccc(S(=O)(=O)N(CC)CC)c2)c1
AC50 [6]: 20.8 µM (active) | AC50 [7]: 18.3 µM (active) | AC50 [8]: 43.7 µM (active)

O=C(Nc1ccc(Br)cc1)c1cccc(-n2cnnn2)c1
IC50 [2]: 32.9 µM (inactive) | IC50 [3]: 24.8 µM (inactive)
